In patent US9862701B2, “Inhibitors of KRAS G12C mutant proteins” (Araxes Pharma LLC, priority 2014, dated 2018):

Target: T1, KRAS G12C 1-169, his-tagged protein, GDP-loaded (Homo sapiens, UniProt P01116, G12C)
T1 construct: KRAS G12C 1-169, his-tagged protein, GDP-loaded
Experiment: Biochemical assay: covalent binding to KRAS G12C, analyzed by mass spectrometry
Conditions: percent of KRAS G12C protein covalently bound to test compound; 2 μm protein, room temperature
Protocol: Test compounds were prepared as 10 mM stock solutions in DMSO (Fisher cat# BP-231-100). KRAS G12C 1-169, his-tagged protein, GDP-loaded was diluted to 2 μm in buffer (20 mM Hepes, 150 mM NaCl, 1 mM MgCl2). Compounds were tested for activity as follows:
Compounds were diluted to 50× final test concentration in DMSO in 96-well storage plates. Compound stock solutions were vortexed before use and observed carefully for any sign of precipitation. Dilutions were as follow: • For 100 μM final compound concentration, compounds were diluted to 5000 μM (5 μl 10 mM compound stock+5 μl DMSO and mixed well by pipetting. • For 30 μM final compound concentration, compounds were diluted to 1500 μM (3 μl 10 mM compound stock+17 μl DMSO) and mixed well by pipetting. • For 10 μM final compound concentration, compounds were diluted to 500 μM (2 μl 10 mM compound stock+38 μl DMSO) and mixed well by pipetting. 49 μl of the stock protein solution was added to each well of a 96-well PCR plate (Fisher cat#1423027). 1 μl of the diluted 50× compounds were added to appropriate wells in the PCR plate using 12-channel pipettor. Reactions were mixed carefully and thoroughly by pipetting up/down with a 200 μl multi-channel pipettor. The plate was sealed well with aluminum plate seal, and stored in drawer at room temperature for 24 hrs. 5 μl of 2% formic acid (Fisher cat# A117) in DI H2O was then added to each well followed by mixing with a pipette. The plate was then resealed with aluminum seal and stored on dry ice until analyzed as described below.
The above described assays were analyzed by mass spectrometry according to the following procedure:
The MS instrument is set to positive polarity, 2 GHz resolution, and low mass (1700) mode and allowed to equilibrate for 30 minutes. The instrument is then calibrated, switched to acquisition mode and the appropriate method loaded.
After another 30 minute equilibration time, a blank batch (i.e., buffer) is run to ensure equipment is operating properly. The samples are thawed at 37° C. for 10 minutes, briefly centrifuged, and transfer to the bench top. Wells A1 and H12 are spiked with 1 uL 500 uM internal standard peptide, and the plates centrifuged at 2000×g for 5 minutes. The method is then run and masses of each individual well recorded.
The masses (for which integration data is desired) for each well are pasted into the platemap and exported from the analysis. Masses for the internal standards are exported as well. The data at 50 ppm is extracted for the +19 charge state, and identity of well A1 is assigned using the internal standard spike and integrated. Peak data is exported as a TOF list and the above steps are repeated individually, for the +20, 21, 22, 23, 24, and 25 charge states.

Compound | Binding %
C=CC(=O)N1CCN(c2ccc(-c3cc(O)ccc3Cl)cc2)CC1 [Compound 1, 1-(4-(2′-chloro-5′-hydroxybiphenyl-4-yl)piperazin-1-yl)prop-2-en-1-one] | ++++ (indicates binding activity greater than 30%)
C=CC(=O)N1CCN(c2ccc(-c3cc(O)cc(Cl)c3)cc2)CC1 [Compound 2, 1-(4-(3′-chloro-5′-hydroxybiphenyl-4-yl)piperazin-1-yl)prop-2-en-1-one] | ++ (indicates binding activity greater than 10% and up to 20%)
C=CC(=O)N1CCN(c2ccc(-c3cc(OC)cc(Cl)c3Cl)cc2)CC1 [Compound 3, 1-(4-(2′,3′-dichloro-5′-methoxybiphenyl-4-yl)piperazin-1-yl)prop-2-en-1-one] | + (indicates binding activity from 5% to 10%)
C=CC(=O)N1CCN(c2ccc(-c3cc(O)cc(Cl)c3Cl)cc2)CC1 [Compound 4, 1-(4-(2′,3′-dichloro-5′-hydroxybiphenyl-4-yl)piperazin-1-yl)prop-2-en-1-one] | +++ (indicates binding activity greater than 20% and up to 30%)
C=CC(=O)N1CCN(c2ccc(-c3cc(O)ccc3CC)cc2)CC1 [Compound 5, 1-(4-(2′-ethyl-5′-hydroxybiphenyl-4-yl)piperazin-1-yl)prop-2-en-1-one] | ++++ (indicates binding activity greater than 30%)
C=CC(=O)N1CCC(n2ccc(-c3cc(O)ccc3Cl)cc2=O)CC1 [Compound 6, 1-(1-acryloylpiperidin-4-yl)-4-(2-chloro-5-hydroxyphenyl)pyridin-2(1H)-one] | ++ (indicates binding activity greater than 10% and up to 20%)
C=CC(=O)N1CCN(c2ncc(-c3cc(O)ccc3Cl)cn2)CC1 [Compound 7, 1-(4-(5-(2-chloro-5-hydroxyphenyl)pyrimidin-2-yl)piperazin-1-yl)prop-2-en-1-one] | ++ (indicates binding activity greater than 10% and up to 20%)
C=CC(=O)N1CCN(c2ccc(-c3cc(O)ccc3Cl)cn2)CC1 [Compound 8, 1-(4-(5-(2-chloro-5-hydroxyphenyl)pyridin-2-yl)piperazin-1-yl)prop-2-en-1-one] | ++ (indicates binding activity greater than 10% and up to 20%)
C=CC(=O)N1CCN(c2ccc(-c3cc(O)ccc3Cl)cc2C#N)CC1 [Compound 9, 4-(4-acryloylpiperazin-1-yl)-2′-chloro-5′-hydroxybiphenyl-3-carbonitrile] | ++++ (indicates binding activity greater than 30%)
C=CC(=O)N1CCN(c2ccc(-c3cc(O)ccc3Cl)c(C(N)=O)c2)CC1 [Compound 10, 4-(4-acryloylpiperazin-1-yl)-2′-chloro-5′-hydroxybiphenyl-2-carboxamide] | +++ (indicates binding activity greater than 20% and up to 30%)
C=CC(=O)N1CCN(c2ccc(-c3cc(O)ccc3Cl)c(C#N)c2)CC1 [Compound 11, 4-(4-acryloylpiperazin-1-yl)-2′-chloro-5′-hydroxybiphenyl-2-carbonitrile] | +++ (indicates binding activity greater than 20% and up to 30%)
C=CC(=O)N1CCC(Cn2ccc(-c3cc(O)ccc3Cl)cc2=O)CC1 [Compound 12, 1-((1-acryloylpiperidin-4-yl)methyl)-4-(2-chloro-5-hydroxyphenyl)pyridin-2(1H)-one] | ++ (indicates binding activity greater than 10% and up to 20%)
C=CC(=O)N1CCC(Cn2ccc(-c3ccccc3C(F)(F)F)cc2=O)CC1 [Compound 13, 1-((1-acryloylpiperidin-4-yl)methyl)-4-(2-(trifluoromethyl)phenyl) pyridin-2(1H)-one] | + (indicates binding activity from 5% to 10%)
C=CC(=O)N1CCN(c2ccc(-c3cc(O)ccc3Cl)cc2C(N)=O)CC1 [Compound 14, 4-(4-acryloylpiperazin-1-yl)-2′-chloro-5′-hydroxybiphenyl-3-carboxamide] | +++ (indicates binding activity greater than 20% and up to 30%)
C=CC(=O)N1CCN(Cc2ccc(-c3ccccc3C(F)(F)F)cc2)CC1 [Compound 15, 1-(4-((2′-(trifluoromethyl)biphenyl-4-yl)methyl)piperazin-1-yl)prop-2-en-1-one] | + (indicates binding activity from 5% to 10%)
C=CC(=O)N1CCN(Cc2ccc(-c3c(C)ccc4[nH]ncc34)cc2)CC1 [Compound 16, 1-(4-(4-(5-methyl-1H-indazol-4-yl)benzyl)piperazin-1-yl)prop-2-en-1-one] | + (indicates binding activity from 5% to 10%)
C=CC(=O)N1CCN(Cc2ccc(-c3cc(O)ccc3Cl)cc2)CC1 [Compound 17, 1-(4-((2′-chloro-5′-hydroxybiphenyl-4-yl)methyl)piperazin-1-yl)prop-2-en-1-one] | ++ (indicates binding activity greater than 10% and up to 20%)
C=CC(=O)N1CCN(Cc2ccc(-c3cc(O)ccc3Cl)c(Cl)c2)CC1 [Compound 18, 1-(4-((2,2′-dichloro-5′-hydroxybiphenyl-4-yl)methyl)piperazin-1-yl)prop-2-en-1-one] | ++ (indicates binding activity greater than 10% and up to 20%)
C=CC(=O)N1CCN(Cc2ccc(-c3c(C)ccc4[nH]ncc34)c(Cl)c2)CC1 [Compound 19, 1-(4-(3-chloro-4-(5-methyl-1H-indazol-4-yl)benzyl)piperazin-1-yl)prop-2-en-1-one] | ++ (indicates binding activity greater than 10% and up to 20%)
C=CC(=O)N1CCN(Cc2ccc(-c3cc(O)ccc3Cl)cc2O)CC1 [Compound 20, 1-(4-((2′-chloro-3,5′-dihydroxybiphenyl-4-yl)methyl)piperazin-1-yl)prop-2-en-1-one] | +++ (indicates binding activity greater than 20% and up to 30%)
C=CC(=O)N1CCN(Cc2ccc(-c3ccccc3C(F)(F)F)cc2O)CC1 [Compound 21, 1-(4-((3-hydroxy-2′-(trifluoromethyl)biphenyl-4-yl)methyl)piperazin-1-yl)prop-2-en-1-one] | + (indicates binding activity from 5% to 10%)
C=CC(=O)N1CCN(c2ccc(-c3c(C)ccc4[nH]ncc34)cc2)CC1 [Compound 22, 1-(4-(4-(5-methyl-1H-indazol-4-yl)phenyl)piperazin-1-yl)prop-2-en-1-one] | + (indicates binding activity from 5% to 10%)
C=CC(=O)N1CCN(c2ccc(-c3ccc(O)cc3Cl)cc2)CC1 [Compound 23, 1-(4-(2′-chloro-4′-hydroxybiphenyl-4-yl)piperazin-1-yl)prop-2-en-1-one] | + (indicates binding activity from 5% to 10%)
C=CC(=O)N1CCN(c2ccc(-c3cc(O)ccc3Cl)c3cn[nH]c23)CC1 [Compound 24, 1-(4-(4-(2-chloro-5-hydroxyphenyl)-1H-indazol-7-yl)piperazin-1-yl)prop-2-en-1-one] | ++++ (indicates binding activity greater than 30%)
C=CC(=O)N1CCN(c2ccc(-c3c(O)cccc3F)cc2)CC1 [Compound 25, 1-(4-(2′-fluoro-6′-hydroxybiphenyl-4-yl)piperazin-1-yl)prop-2-en-1-one] | + (indicates binding activity from 5% to 10%)
C=CC(=O)N1CCN(c2ccc(-c3c(C)ccc4[nH]ncc34)c3cn[nH]c23)CC1 [Compound 26, 1-(4-(5′-methyl-1H,1′H-4,4′-biindazol-7-yl)piperazin-1-yl)prop-2-en-1-one] | + (indicates binding activity from 5% to 10%)
